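Five compound concentrations were applied to cells in 96-well plates for 48 hours; endpoints were derived by simple linear interpolation of the resulting dose-response curve. GI50: concentration for 50% inhibition of growth.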 Active and inactive are the calls of the source. Cut-off read from the data, not from the text of the source: active = GI50 up to about 1.1 µM and inactive = higher.
Columns and labels:
Assay in all cases: inhibition of tumour cell growth, NCI panel, 48 h
[1] = test system: OVCAR-8
[2] = test system: MDA-MB-435
[3] = test system: M14
[4] = test system: SK-MEL-2
[5] = test system: HOP-62
[6] = test system: SW-620
[7] = test system: CCRF-CEM
[8] = test system: SNB-75
[9] = test system: NCI-H522
[10] = test system: K562
[11] = test system: NCI-H23
[12] = test system: UO-31
[13] = test system: BT-549
[14] = test system: HCT-116
[15] = test system: A498
[16] = test system: PC-3
[17] = test system: SN12C
[18] = test system: SK-MEL-5
[19] = test system: Hs-578T
[20] = test system: NCI-H460

| Compound | GI50 [1] | GI50 [2] | GI50 [3] | GI50 [4] | GI50 [5] | GI50 [6] | GI50 [7] | GI50 [8] | GI50 [9] | GI50 [10] | GI50 [11] | GI50 [12] | GI50 [13] | GI50 [14] | GI50 [15] | GI50 [16] | GI50 [17] | GI50 [18] | GI50 [19] | GI50 [20] |
| --- | --- | --- | --- | --- | --- | --- | --- | --- | --- | --- | --- | --- | --- | --- | --- | --- | --- | --- | --- | --- |
| COc1ccc(C[C@@H]2NC[C@@H](O)[C@@H]2OC(C)=O)cc1 | 0.0189 µM (active) | 0.0168 µM (active) | 0.0185 µM (active) | 0.039 µM (active) | 0.0214 µM (active) | 0.0166 µM (active) | 0.00899 µM (active) | 0.0132 µM (active) | 0.0232 µM (active) | 0.0104 µM (active) | 0.021 µM (active) | 0.0247 µM (active) | 0.0329 µM (active) | 0.0103 µM (active) | 0.0157 µM (active) | 0.0196 µM (active) | 0.0229 µM (active) | 0.0104 µM (active) | 0.0284 µM (active) | 0.0142 µM (active) |
| O=C(c1c(Cl)cc(Cl)cc1Cl)N(Cc1cccnc1)C(=S)N(Cc1cccnc1)C(=O)c1c(Cl)cc(Cl)cc1Cl | 4.04 µM (inactive) | 8.67 µM (inactive) | 4.82 µM (inactive) | 12.5 µM (inactive) | 4.35 µM (inactive) | 4.14 µM (inactive) | 5.56 µM (inactive) | 5.35 µM (inactive) | 6.89 µM (inactive) | 4.32 µM (inactive) | 8.67 µM (inactive) | 5.47 µM (inactive) | 2.98 µM (inactive) | 2.91 µM (inactive) | 23.8 µM (inactive) | 5.96 µM (inactive) | 5.68 µM (inactive) | 10.9 µM (inactive) | 23.9 µM (inactive) | 13.4 µM (inactive) |
| CC1(F)C=CC(=O)C=C1 | 19.6 µM (inactive) | 35.7 µM (inactive) | > 100 µM (inactive) | > 100 µM (inactive) | > 100 µM (inactive) | 22.2 µM (inactive) | 47.5 µM (inactive) | > 100 µM (inactive) | 37.4 µM (inactive) | 44 µM (inactive) | > 100 µM (inactive) | 23.6 µM (inactive) | > 100 µM (inactive) | 38.4 µM (inactive) | > 100 µM (inactive) | 69.7 µM (inactive) | > 100 µM (inactive) | > 100 µM (inactive) | > 100 µM (inactive) | > 100 µM (inactive) |
| C/C=C/C(O)P(=O)(OC)OC (stereo not given) | 0.451 µM (active) | 0.267 µM (active) | 0.207 µM (active) | 0.324 µM (active) | 0.628 µM (active) | 0.277 µM (active) | 0.227 µM (active) | 0.312 µM (active) | 0.214 µM (active) | 0.318 µM (active) | 0.307 µM (active) | 0.164 µM (active) | 0.594 µM (active) | 0.254 µM (active) | 0.316 µM (active) | 0.407 µM (active) | 0.4 µM (active) | 0.196 µM (active) | 0.213 µM (active) | 0.272 µM (active) |
| O=C(O)C(O)C(O)C(O)C(=O)CO (stereo not given) | > 100 µM (inactive) | > 100 µM (inactive) | > 100 µM (inactive) | > 100 µM (inactive) | > 100 µM (inactive) | > 100 µM (inactive) | > 100 µM (inactive) | > 100 µM (inactive) | > 100 µM (inactive) | > 100 µM (inactive) | > 100 µM (inactive) | > 100 µM (inactive) | > 100 µM (inactive) | > 100 µM (inactive) | > 100 µM (inactive) | > 100 µM (inactive) | > 100 µM (inactive) | > 100 µM (inactive) | > 100 µM (inactive) | > 100 µM (inactive) |
| Cn1c(=O)c2c(nc(NCCCCl)n2CC(=O)O)n(C)c1=O | > 100 µM (inactive) | > 100 µM (inactive) | > 100 µM (inactive) | > 100 µM (inactive) | > 100 µM (inactive) | > 100 µM (inactive) | > 100 µM (inactive) | > 100 µM (inactive) | > 100 µM (inactive) | > 100 µM (inactive) | > 100 µM (inactive) | > 100 µM (inactive) | > 100 µM (inactive) | > 100 µM (inactive) | > 100 µM (inactive) | > 100 µM (inactive) | > 100 µM (inactive) | > 100 µM (inactive) | > 100 µM (inactive) | > 100 µM (inactive) |
